In patent US9101567B2, “Suppression of cancer growth and metastasis using nordihydroguaiaretic acid derivatives with 7-hydroxystaurosporine” (The Johns Hopkins University, priority 2010, dated 2015):

Experiments:
caspase-3 and 9 = experiment: Western blotting of cleaved caspase-3 and 9 in LNCaP cells; assay type: cell-based, human; settings: 17 hrs, M4N 80 μM, etoposide 10 μM, rapamycin 10 μM, UCN-01 2 μM
Experimental: (§1) The sample volumes were adjusted by the total protein amount. Protein assay was performed by Bio-Rad Protein Assay (Bio-Rad Laboratories, Inc. Hercules, Calif.). The samples were resolved by the standard SDS-polyacrylamide gel electrophoresis and transferred to nitrocellulose membrane (Amersham Biosciences, Bjorkgatan, Sweden). The membranes were blocked with skim milk, and incubated with primary antibodies at 4° C. overnight and then with secondary antibody conjugated with horse radish peroxidase at room temperature for 2 hrs. The signals were detected by western blot chemiluminescence reagent plus (New England Nuclear Life Science Products, Boston, Mass.).
(§2) The efficacy of the combination treatment of M4N with three anticancer drugs, etoposide, rapamycin, and UCN-01 to induce cell death was examined for LNCaP human prostate cancer cells with TUNEL assay. We chose these anticancer drugs trying to diversify the mechanisms in which the anticancer drugs work (43-45). […] Additionally the effect of caspase-3 and 7 inhibitor, zDEVD-fmk on the cell death induced by the combination treatment was examined (FIG. 1E).

caspase-7 [1] = experiment: Enzymatic assay for caspase-7 in extracts of treated LNCaP cells; assay type: cell-based, human; settings: extracts of LNCaP cells treated for 13 hrs
Experimental: The enzymatic assay specific for caspase-7 was performed using a CaspSELECT caspase-7 immunoassay kit (BioVision, Mountain View, Calif.). This assay is based on the […] assay with DEVD-afc. Since DEVD-afc can be a substrate for either caspase-3 or 7, only caspase-7 is selected from cell extracts by anti-caspase-7 antibody which is coated on microtiter plates. Briefly the microtiter plates were coated with anti-caspase-7 antibody overnight at 4 C and blocked with a blocking solution for 30 minutes at room temperature. The cell extracts were applied to the microtiter plates. After washing the microtiter plates, the substrate […] was added to the plates and incubated for about three hours. The fluorescence was measured by a microtiter plate fluorescence reader Infinite 200 (Tecan, Switzerland).
as §2

caspase-7 [2] = experiment: Western blotting of caspase-7 cleavage in HepG2 cells; assay type: cell-based, human; settings: HepG2, 17 hrs; M4N 80 μM, etoposide 20 μM, rapamycin 20 μM, UCN-01 5 μM
Experimental: as §1
The effect of the combination treatments on cell death and autophagy was examined in two cell lines other than LNCaP cells.

LNCaP tumors = experiment: Nude mice orthotopically implanted with LNCaP tumors: life-span and lung metastasis; assay type: in vivo, nude (nu/nu) mice; settings: LNCaP tumor-bearing nude mice; lung sections, hematoxylin and eosin
Experimental: T-cell deficient male nude mice (nu/nu) were obtained from Charles River Laboratories (Wilmington, Mass.). […] For drug combinations (M4N/etoposide, M4N/rapamycin, and M4N/UCN-01), etoposide, rapamycin, or UCN-01 powder was further added to M4N in CPE 25/30 to make a final concentration of M4N (10 mg/ml) respectively with etoposide (4 mg/ml), rapamycin (3.75 mg/ml), or UCN-01 (884 g/ml) in CPE 25/30 formulation. These drugs were intravenously injected into the tail vein of mice at the daily dose of 0.1 ml per mouse. Therefore dosages of each injection were 1 mg/shot (for M4N), 0.4 mg/shot (for etoposide), 0.375 mg/shot (for rapamycin), and 88.4 μg/shot (for UCN-01). The drug injections were performed once every day; beginning at day 3 until day 31 after tumor inoculation for the combination treatment with either etoposide or rapamycin and until day 25 after tumor inoculation for the combination treatment with UCN-01. After this the drugs were injected once a week for etoposide/rapamycin combination treatment and once every three days until day 35 for UCN-01 combination treatment.
LNCaP cells growing subconfluently were collected into the tissue culture medium without fetal bovine serum and antibiotics. The cell concentration was adjusted by the same medium. […]

[3] = test system: LNCaP human prostate cancer cells; experiment: TUNEL assay of cell death in LNCaP cells; assay type: cell-based; settings: 24 hrs, z-DEVD-fmk 50 μM
Text: LNCaP human prostate cancer, DU145 human prostate cancer, PC3 human prostate cancer, MCF-7 human breast cancer, MDA-MB-231 human breast cancer, MDA-MB-468 human breast cancer, HT29 human colon cancer, K562 human myelogenous leukaemia, HepG2 human hepatoma, Hep3B human hepatoma, and LN229 human glioblastoma cancer cell lines were purchased from American Type Culture Collection (Manassas, Va.). OC24 human ascites ovarian cancer cell line was a generous gift from Dr. XXX (Johns Hopkins University, MD). LNCaP cell line was cultured in RPMI1640 medium supplemented with glucose (14 mM), pyruvate (1 mM), and fetal bovine serum (FBS) (10%). DU145 cell line was cultured in MEM supplemented with non-essential amino acids, glucose (21 mM), pyruvate (1 mM), and FBS (10%). PC3 cell line was cultured in F-12K medium supplemented with FBS (10%). MCF-7 cell line was cultured in DMEM supplemented with FBS (10%). OC24 cell line was cultured in RPMI1640 medium supplemented with FBS (10%) as suspension culture. MDA-MB-231 and 468 cell lines were cultured in Leibovitz's L15 medium supplemented with FBS (10%) under air. HT29 cell line was cultured in DMEM supplemented with glucose (25 mM) and FBS (10%). K562 cell line was cultured in RPMI1640 supplemented with FBS (10%). HepG2 and Hep3B cell lines were cultured in MEM supplemented with FBS (10%). LN229 cell line was cultured in DMEM supplemented with FBS (5%). […]

Compound | expression of cleaved caspase-3 and 9 (caspase-3 and 9) | caspase-7 activation (enzymatic activity) (caspase-7 [1]) | caspase-7 cleavage product (caspase-7 [2]) | mice with obvious lung metastasis (histology) (LNCaP tumors) | effect on TUNEL-positive cell death induced by the combination treatments [3]
COc1cc([C@@H]2c3cc4c(cc3[C@@H](O[C@@H]3O[C@@H]5CO[C@@H](C)O[C@H]5[C@H](O)[C@H]3O)[C@H]3COC(=O)[C@H]23)OCO4)cc(OC)c1O [etoposide] | didn't induce the cleavage | only a small amount | small amount | 3 out of 5 | 
COC(=O)CC[C@H](NC(=O)[C@H](CC(=O)OC)NC(=O)OCc1ccccc1)C(=O)N[C@H](C(=O)N[C@@H](CC(=O)OC)C(=O)CF)C(C)C [zDEVD-fmk] |  |  |  |  | inhibited a large portion of the cell death
